Columns and labels:
[1] = test system: RAW 264.7 cells (osteoclast differentiation); test: RANKL-induced osteoclast differentiation of RAW 264.7 cells; format: cell-based; details: for number of osteoclast-like cells (TRAP staining): co-culture with RANKL 6 days, AdipoRon 20 μM, AdipoAI 5 μM
Procedure: RAW 264.7 cells (ATCC, Manassas, VA, USA) were cultured and passaged in DMEM supplemented with 10% (v/v) FBS (Invitrogen, Grand Island, NY, USA) and 1% Penicillin-Streptomycin (Gibco, Gaithersburg, MD, USA). For the induction of osteoclastogenesis, RAW 264.7 cells were cultured 24 in α-MEM supplemented with 10% FBS and 1% Penicillin-Streptomycin in the presence of 100 ng/ml RANKL (Peprotech, Rocky Hill, NJ, USA) for 2 days, and subsequently treated or not with AdipoRon or AdipoAI for another 2 days changing cell culture medium every 2 days. After a total of […] of culture, morphologic examination was performed, as was mRNA and protein expression. To simulate high glucose environment in vitro, α-MEM was supplemented with D-glucose to 25 mmol/l (high glucose) or 5 mmol/l (physiological glucose). 20 mmol/l D-mannitol served as an osmotic control.
Total RNA was isolated from cell cultures and gingival soft tissues using TriZol reagent (Life Technologies, Carlsbad, CA, USA) according to the manufacturer's instructions^24. Reverse transcription was performed using the PrimeScript RT Master Mix (Takara Bio, Otsu, Japan) and real-time-qPCR analyses were performed using SYBR-Green Real-Time PCR Master Mix (Takara Bio, Otsu, Japan) as described earlier^27.

AdipoRs = details: cited from earlier work
APPL1/MyD88 interaction = test: Co-immunoprecipitation of AdipoR1, APPL1 and MyD88 in Raw264.7 cells; format: cell-based; details: AdipoAI (5 μM) and LPS-treated cells compared to control cells
Procedure: FIG. 6 Involvement of APPL1/MyD88 interaction in the anti-inflammatory effects of AdipoAI in macrophages. (a) RAW 264.7 cells were transfected with siRNA targeting MyD88, c-Maf or scrambled control siRNA for 24 h, followed by stimulation with LPS for 6 h. Transfection efficiency of siRNA and mRNA expression levels of proinflammatory cytokines were measured by qPCR and normalized with GAPDH mRNA levels. Data were expressed as the mean±SEM at five biological independent experiments. One-way ANOVA test for multiple-group comparisons, * vs. LPS+Scrambled group, *P<0.05, significant differences between each indicated group. ns, not significant. (b) Raw264.7 cells were transfected with siRNA targeting MyD88 or scrambled control siRNA for 24 h, followed by stimulation with LPS for 30 min for measurement of related proteins. Representative images are shown along with β-actin as an internal loading control and densitometric analysis. Densitometry values-MyD88: 1.00, 0.24, 1.20, 0.33; pIRAK4: 1.00, 0.00; p-P38: 1.00, 0.11. […] Proteins immunoprecipitated with the anti-MyD88 antibody were analyzed by immunoblotting with antibodies for MyD88, APPL1, and AdipoR1. […]
The RAW 264.7 macrophages were seeded at a density of 6×10^6 cells per 100 mm dish. […] The immunoprecipitates were washed with lysis buffer and further analyzed by polyacrylamide gel electrophoresis and Western blot analyses. […]

[2] = test system: AdipoR1/2 mRNA expression; test: qRT-PCR of AdipoR1/2 mRNA in Raw264.7 cells; format: cell-based; details: 24 h
Procedure: FIG. 10 Raw264.7 cells were treated with different doses of AdipoAI for 24 h to measure AdipoR1/2 mRNA expression by qRT-PCR. Data were expressed as the mean±SEM at five biological independent experiments. One-way ANOVA test for multiple-group comparisons, * vs. control group. *P<0.05, significant differences between each indicated group.
Total RNA of cells was extracted using Quick-RNA Miniprep Kit (ZYMO Research, Irvine, CA, USA) and total RNA from mouse tissues was prepared with TriZol reagent (Life Technologies) according to the manufacturer's instructions followed by qRT-PCR assays as described previously (L. Zhang et al., 2014). 1 μg of total RNA was used for reverse transcription using the M-MLV Reverse Transcriptase (Thermo Scientific, Waltham, MA, USA) according to the manufacturer's protocol using PowerUp SYBR Green Master Mix (Thermo Scientific) on a Bio-Rad iQ5 thermal cycler (Bio-Rad Laboratories, Hercules, CA, USA). Differences in expression were evaluated by the comparative cycle threshold method using GAPDH or β-actin as a control. The primer sequences used for the qRT-PCR experiments are listed in supplemental Table 1.

[3] = higher concentration, RANKL 100 ng/ml

Structure (SMILES)	downregulation of TRAP mRNA expression ([1]; 5 μM, RANKL 100 ng/ml)	number of osteoclast-like cells (TRAP staining) [1]	inhibition of TRAP mRNA expression [1, 3] [%]	inhibition of cathepsin K mRNA expression [1, 3] [%]	binding affinity for AdipoRs (AdipoRs)	interaction of APPL1 with MyD88 (Co-IP) (APPL1/MyD88 interaction)	mRNA levels of AdipoRs [2]	downregulation of cathepsin K mRNA expression ([1]; 5 μM, RANKL 100 ng/ml) [%]	number of RAW 264.7 cells (CCK-8) at 20 μM (RAW 264.7 cells)	number of RAW 264.7 cells (CCK-8) at 5 μM (RAW 264.7 cells; mouse, 48 h, 5 μM)
O=C(COc1ccc(C(=O)c2ccccc2)cc1)NC1CCN(Cc2ccccc2)CC1 [AdipoRon, reference compound]	no significant inhibition in TRAP mRNA expression	significantly reduced the number of osteoclast-like cells	64.5	65.1	low binding affinity for AdipoRs					
COc1ccc(CN2CCC(NC(=O)COc3ccc(C(=O)c4ccc(Cl)cc4)cc3)CC2)cc1 [Compound 3]	97.0%	significantly reduced the number of osteoclast-like cells				the interaction of APPL1 with MyD88 was increased	increased the mRNA levels of AdipoRs	87.5	reduced cell number	did not reduce the number of RAW 264.7 cells
